Measurements taken from US6214872A, “Aryloxyarylsulfonylamino hydroxamic acid derivatives” (Pfizer Inc., priority 1999, dated 2001).
Values joined by “and” are separate entries in the source; they are usually repeats but may differ in a detail not shown here. Equal values may be shown once.

How the values were obtained:
[1] = biological target: T1, Human Collagenase (MMP-1) (Homo sapiens, UniProt P03956); experiment: Inhibition of Human Collagenase (MMP-1); assay type: biochemical; settings: Table 1; human recombinant collagenase, fluorogenic substrate, room temperature
T1 sequence (P03956 100-469): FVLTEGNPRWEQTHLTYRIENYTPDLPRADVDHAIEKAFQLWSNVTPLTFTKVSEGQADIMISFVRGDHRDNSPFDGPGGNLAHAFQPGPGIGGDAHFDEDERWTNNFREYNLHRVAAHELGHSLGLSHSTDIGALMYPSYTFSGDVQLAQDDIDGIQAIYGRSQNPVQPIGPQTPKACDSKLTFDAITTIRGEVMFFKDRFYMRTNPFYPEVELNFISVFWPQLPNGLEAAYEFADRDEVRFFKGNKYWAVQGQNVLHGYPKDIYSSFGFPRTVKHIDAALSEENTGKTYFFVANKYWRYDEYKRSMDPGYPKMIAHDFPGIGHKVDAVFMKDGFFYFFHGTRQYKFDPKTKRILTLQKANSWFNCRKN
Experimental: Human recombinant collagenase is activated with trypsin using the following ratio: 10 mg trypsin per 100 mg of collagenase. The trypsin and collagenase are incubated at room temperature for 10 minutes then a five fold excess (50 mg/10 mg trypsin) of soybean trypsin inhibitor is added. 10 mM stock solutions of inhibitors are made up in dimethyl sulfoxide and then diluted using the following Scheme: 10 mM→120 μM→12 μM→1.2 μM→0.12 μM Twenty-five microliters of each concentration is then added in triplicate to appropriate wells of a 96 well microfluor plate. The final concentration of inhibitor will be a 1:4 dilution after addition of enzyme and substrate. Positive controls (enzyme, no inhibitor) are set up in wells D1-D6 and blanks (no enzyme, no inhibitors) are set in wells D7-D12. Collagenase is diluted to 400 ng/ml and […] is then added to appropriate wells of the microfluor plate. Final concentration of collagenase in the assay is 100 ng/ml. Substrate ([…]) is made as a 5 mM stock in dimethyl sulfoxide and then diluted to […] in assay buffer. The assay is initiated by the addition of […] substrate per well of the microfluor plate to give a final concentration of 10 mM. Fluorescence readings (360 nm excitation, 460 nm emission) were taken at time 0 and then at 20 minute intervals. The assay is conducted at room temperature with a typical assay time of 3 hours. Fluorescence vs time is then plotted for both the blank and collagenase containing samples (data from triplicate determinations is averaged). […] The zero time is used as a blank for each compound at each concentration and these values are subtracted from the 120 minute data. Data is plotted as inhibitor concentration vs % control (inhibitor fluorescence divided by fluorescence of collagenase alone×100). IC50 's are determined from the concentration of inhibitor that gives a signal that is 50% of the control. If IC50 's are reported to be <0.03 mM then the inhibitors are assayed at concentrations of 0.3 mM, 0.03 mM, […] and 0.003 mM.

[2] = biological target: Human recombinant MMP-13 (collagenase 3) (Homo sapiens, UniProt P45452); experiment: Inhibition of MMP-13; assay type: biochemical; settings: human recombinant MMP-13, fluorogenic substrate
Experimental: Human recombinant MMP-13 is activated with 2 mM APMA (p-aminophenyl mercuric acetate) for 1.5 hours, at 37° C. and is diluted to […] in assay buffer (50 mM Tris, pH 7.5, 200 mM sodium chloride, 5 mM calcium chloride, […], 0.02% brij). Twenty-five microliters of diluted enzyme is added per well of a 96 well microfluor plate. The enzyme is then diluted in a 1:4 ratio in the assay by the addition of inhibitor and substrate to give a final concentration in the assay of […]. 10 mM stock solutions of inhibitors are made up in dimethyl sulfoxide and then diluted in assay buffer as per the inhibitor dilution scheme for inhibition of human collagenase (MMP-1): Twenty-five microliters of each concentration is added in triplicate to the microfluor plate. The final concentrations in the assay are 30 mM, 3 mM, 0.3 mM, and 0.03 mM. Substrate ([…]) is prepared as for inhibition of human collagenase (MMP-1) and […] is added to each well to give a final assay concentration of 10 mM. Fluorescence readings (360 nm excitation; 450 emission) are taken at time 0 and every 5 minutes for 1 hour. Positive controls consist of enzyme and substrate with no inhibitor and blanks consist of substrate only. IC50 's are determined as per inhibition of human collagenase (MMP-1). If IC50 's are reported to be less than […], inhibitors are then assayed at final concentrations of 0.3 mM, 0.03 mM, 0.003 mM and 0.0003 mM.

Structure (SMILES)	IC50 [1]	IC50 [2]
CCOC(=O)CCN(C1(C(=O)NO)CCCC1)S(=O)(=O)c1ccc(Oc2ccc(F)cc2)cc1 [Example 1, 3-[[4-(4-FLUOROPHENOXY)BENZENESULFONYL]-(1-HYDROXY-CARBAMOYL CYCLOPENTYL)AMINO]-PROPIONIC ACID ETHYL ESTER]	100 nM	0.9 nM
COc1ccc(S(=O)(=O)N(CCC(=O)O)C(C(=O)NO)C2CCCCC2)cc1 (centres unmarked) [cyclohexyl, hydrogen, hydrogen, methoxy]	18 nM and 22 nM	4 nM and 2 nM
COc1ccc(S(=O)(=O)N(CCC(=O)O)C2(C(=O)NO)CCCC2)cc1 [cyclopentyl, --, hydrogen, methoxy]	800 nM and 700 nM	21 nM and 25 nM
COc1ccc(S(=O)(=O)N(CCC(=O)O)C(C)(C)C(=O)NO)cc1 [methyl, methyl, hydrogen, methoxy]	12000 nM	590 nM and 730 nM
